Test results taken from patent US20260217983A1, “SULFONIUM SALT PHOTOINITIATORS AND METHODS OF LED CURING A COMPOSITION WITH SAID SULFONIUM SALT PHOTOINITIATORS” (ARKEMA FRANCE, priority 2022, published 2026).

What was measured:
[1] = Solubility in propylene carbonate at ambient temperature; assay type: physicochemical; settings: 20-25° C.
Method: Solubility of selected sulfonium salts in propylene carbonate at ambient temperature (20-25° C.) was determined.

[2] = Colour index 'b' of formulations before and after polymerization; assay type: physicochemical; settings: UViCure S105E, thin samples (20 μm), under air, 300 s irradiation
Method: The low yellowing characteristics can be measured by the Colour index ‘b’ value on cured films.
Formulations comprising the photoinitiators and neat UViCure S105E resin were prepared as described at example 2.

[3] = Belt curing performance (thumb-twist depth cure) in hybrid acrylate/epoxy resin; settings: for Cure speed in hybrid acrylate/epoxy resin: 24 μm film, under air, PI 2 wt %
Method: (§1) The photoinitiators were dissolved either in neat UViCure S105E resin or a hybrid acrylate/epoxy resin (prepared by mixing 60 wt parts UViCure S105E, 15 wt parts UViCure S130 and 25 wt parts SR492; all product are available from Sartomer). Formulations were prepared by combining all materials in the given proportions and then stirring at 30-40° C. until the samples were fully homogeneous; the formulations were then allowed to cool to room temperature. For all experiments, the formulations were cured on Leneta Form 3N-31 gloss finish paper at 6 μm and 24 μm film thickness using a belt-cure instrument; the films were prepared using a K-bar. All films were then cured under an LED lamp at a given belt speed. ‘Depth cure’ for each formulation was assessed using the ‘thumb-twist’ test (where no visible mark is made when a thumb is pressed down firmly onto the coating with a twisting motion), and from the belt speed; the calculated cure speed (in m/min) is given.

[4] = FTIR-ATR cure test of cationic formulations (epoxide, oxetane conversion, 1100 cm^-1 peak growth); settings: 405 nm, cationic systems
Method: (§2) Matrixes: In a 1000 mL of metal can, formulation matrix was charged according to the percentage in Table 12. The 1000-1005 g mixture of each matrix sample was prepared and mixed by mechanical mixer for about 1 hour around 60° C. until the solution became clear. Formulations: In a white max 50 jar from FlackTek Inc., photoinitiator and propylene carbonate were loaded at first, mixed by hand with stainless steel spatula, placed in 60° C. oven for about 1 h, mixed again until it became clear. Then, formulation matrix was charged according to the percentage in one of Table 13 to 21. The […]-52.60 g mixture of each sample was prepared and mixed for 3 minutes at 3000 RPM in Speed Mixer from FleackTec Inc. Then, all jars were placed in 60° C. oven for about 2 h, taken out and immediately mixed for another 2 minutes until the solution became clear.
(§3) A Fourier Transform Infrared (FTIR) with an Attenuated Total Reflection (ATR) setup was used. All polymerization rate measurements were performed using Nicolet iS50 FT-IR Spectrometer from Thermo Scientific, equipped with a standard DLaTGS detector. A lamp holder for the ART platform of FTIR unit can be customized and printed from Arkema N3xtDimention® engineered resin N3D-TOUGH784 in order to ensure precisely fit of a 365 nm lamp Accucure ULM-2-365 or a 405 nm lamp Accucure ULM-2-405 from Digital Light Labs. On the bottom of this lamp holder, a dry air channel is built in to allow air uniformly blowing over sample surface, the gas flow rate can be controlled over a rotameter. The LED light was manually triggered by Ultraviolet illumination & Measurement System. LED light exposure can be programed by AccuCure software. For measurement, 25 μL of liquid sample was placed in the center of an ATR crystal. 3 mil of thin film was prepared by a customized coating applicator (3 mil WFM, G1046 from BYK). The LED lamp with holder was place on the top of ART platform. Then FTIR scan was initiated to collect liquid IR spectrum at first. Each IR spectrum of a specific exposure time at 10 mW/cm^2 of LED light were collected. Measurements of acrylate conversion were taken at the peak height under the reference peak around 1727 cm^−1; the acrylate peak of SR833S at approximately 1407 cm^−1, the epoxide peak of UviCure S105 at approximately 790 cm^−1, and the oxetane peak of UViCure S130 at approximately 970 cm^−1 were also measured. Since the ring opening of both epoxide and oxetane generated C—O—C bond, the growth of C—O—C IR peak height at ~1100 cm^−1 was monitored as well. The resulting of peak 1100 cm^−1 growth rate could be calculated to assess total cationic cure speed. Peak heights were determined using the same baseline where a baseline is chosen to be the two lowest points between 600 cm^−1 and 1800 cm^−1. The peak height under the peak and above the baseline was then determined. The integration limits for liquid and the cured sample are not identical but are similar, especially for the reference peak.
(§4) The ratios of the acrylate peak height, epoxide peak height, ring opening peak height from both epoxide and oxetane to the reference peak height were determined for both the liquid and the cured samples. Degree of cure or conversion or peak growth rate, expressed as percentage reacted acrylate or epoxide or ring opening of both epoxide and oxetane, was calculated from the equation below: […]
(§5) Where Rliq is the peak height ratio of the liquid sample and Rc is the peak height ratio of the LED cured sample. The resulting acrylate and epoxide conversions or C—O—C growth rates were collected and listed in Tables 13 to 21, plotted in FIG. 1 to 8 and FIG. 10.

[5] = Belt curing performance (thumb-twist depth cure) in UViCure S105E resin; settings: 24 μm film, under air, PI 2 wt %
Method: as §1

[6] = Transmittance at 0.01% w/v in propylene carbonate; assay type: physicochemical
Method: The samples were prepared at 0.01% w/v in propylene carbonate.

[7] = FTIR-ATR cure test of hybrid formulations (acrylate, epoxide conversion, 1100 cm^-1 peak growth); settings: 405 nm; for Epoxide cure compared with Omnicat 550: 0.5% TPO-L, matched with control SC938/CPTX; for Epoxide cure compared with Omnicat 550 / acrylate cure with or without radical photoinitiator: high or low epoxide hybrid systems; for epoxide cure and total cationic cure compared with Omnicat 550 and SC992: in presence or absence of radical photoinitiator
Method: as §2, §3, §4, §5

[8] = Real time FT-IR curing performance at 405 nm in neat TMPTA; settings: 20 μm thickness, laminated; for Acrylate Polymerization rate Rp/[M0]*100: LED @405 nm (110 W/cm^2); for Acrylate Final conversion: LED @405 nm (110 mW/cm^2)
Method: The curing performance of individual products prepared above was assessed using real time FT-IR measurement. The photoinitiators were dissolved either in neat trimethylolpropane triacrylate (TMPTA; available as SR351 from Sartomer) or in a 1:1 (w/w) mixture of TMPTA and UViCure S105 as indicated, applied onto the FT-IR measurement plate, laminated to prevent oxygen inhibition, and irradiated with the indicated LED light source. For the epoxy component, the polymerization rate and final reactive group conversion were determined by monitoring the change of the relevant infrared band near 900 cm^−1 corresponding to an epoxide ring. For the acrylate component, the C═C stretch band near 1625 cm^−1 was used.

[9] = Thermal stability by DSC in TMPTA/UViCure S105E (1:1) hybrid resin; assay type: physicochemical; settings: DSC at 10° C./min, loading 1 wt %
Method: Formulations comprising the photoinitiators and neat UViCure S105E resin and/or TMPTA resin were prepared as described at example 2.

[10] = LED 365 nm, 100% intensity (=70.1 mJ/cm^2), belt speed 40 m/min
[11] = LED 395 nm, 80 m/min, 50% intensity (=36.9 mJ/cm^2)
[12] = LED 395 nm, 40 m/min, 100% intensity (=164.5 mJ/cm^2)

Structure (SMILES)	Solubility in propylene carbonate [1] [wt %]	Colour index ‘b’ value After Polymerization ([2]; LED @365 nm (120 mW/cm^2))	Colour index ‘b’ value Before Polymerization ([2]; LED @365 nm (120 mW/cm^2))	Colour index ‘b’ value After Polymerization ([2]; LED @385 nm (160 mW/cm^2))	Colour index ‘b’ value Before Polymerization ([2]; LED @385 nm (160 mW/cm^2))	Cure speed in hybrid acrylate/epoxy resin [3, 10] [m/min]	Cure speed in hybrid acrylate/epoxy resin [3, 11] [m/min]	epoxide, oxetane and total cationic cure compared with Omnicat550 and SC992 [4]	Cure speed in UViCure S105E resin [5, 10] [m/min]	Cure speed in UViCure S105E resin [5, 12] [m/min]	% Transmittance at 355 nm [6] [%]	% Transmittance at 420 nm [6] [%]	Epoxide cure compared with Omnicat 550 [7]	acrylate cure with or without radical photoinitiator [7]	epoxide cure and total cationic cure compared with Omnicat 550 and SC992 ([7]; hybrid systems)	Acrylate Polymerization rate Rp/[M0]*100 [8] [s⁻¹]	Acrylate Final conversion [8] [%]	onset temperature of thermal polymerisation [9] [°C]	other results
CCc1cc(CC)c2sc3ccc([S+](c4ccc(C)cc4)c4ccc(C(=O)c5ccccc5)cc4)cc3c(=O)c2c1 (centres unmarked) [Photoinitiator 4, (4-benzoylphenyl)(5,7-diethyl-9-oxo-9H-thioxanthen-2-yl)(4-methylphenyl)sulfonium Hexafluorophosphate]	>47	6.05	6.33	6.09	6.28	17.8	15.1	better epoxide cure, oxetane cure as well as total cationic cure than both Omnicat550 and SC992	3.7	5.2	6.8	83.3	better than that from Omnicat 550	high acrylate cure	better epoxide cure and total cationic cure than Omnicat 550 and SC992	5.70	64		acrylate cure in presence of BKL or XKm, or without any radical initiator ([7]; hybrid systems, like SC938/CPTX): could cure acrylate very well
Cc1ccc([S+](c2ccc(C(=O)c3ccccc3)cc2)c2ccc3sc4ccc(C(C)C)cc4c(=O)c3c2)cc1 (centres unmarked) [Photoinitiator 2, (4-benzoylphenyl)(4-methylphenyl)[9-oxo-7-(propan-2-yl)-9H-thioxanthen-2-yl]sulfonium Hexafluorophosphate]	>48	6.31	6.48	6.26	6.49	11.1	16.4	better epoxide cure, oxetane cure as well as total cationic cure than both Omnicat550 and SC992	4.6	10.0	19.7	94.3				4.58	53	117	
CCCOc1ccc(Cl)c2c(=O)c3cc(-[s+]4c5ccccc5c(=O)c5c(Cl)ccc(OCCC)c54)ccc3sc12 (centres unmarked) [Photoinitiator 5, 1-chloro-10-(8-chloro-9-oxo-5-propoxy-9H-thioxanthen-2-yl)-9-oxo-4-propoxy-9H-thioxanthen-10-ium Hexafluorophosphate]	42	4.92	5.02	4.91	5.35	40.0	80.0	better epoxide cure, oxetane cure as well as total cationic cure than both Omnicat550 and SC992	13.3	13.3	0.8	64.8	better than that from Omnicat 550	high acrylate cure	better epoxide cure and total cationic cure than Omnicat 550 and SC992	2.01	51	120	belt cure speed compared with photoinitiator 1 ([3]; at 80 m/min in hybrid acrylate/epoxy resin at both 365 nm and 395 nm): superior cure speed; cationic cure compared with 2 (comp.) or 4 (comp.) [4]: performed slightly better than 2 (comp.) or 4 (comp.)
